The results in this text go back to US20230322805A1, “NOVEL PYRIMIDODIAZEPINE DERIVATIVES OR USES THEREOF” (SPARK BIOPHARMA, INC., priority 2020, published 2023).

For assay [1], the system named is protein synthesis in SH-SY5Y cells. Description: Protein synthesis labelling with furomycin in SH-SY5Y cells. Format: cell-based, human. Particulars: 10 μM SB1617, with thapsigargin. The protocol:
5-1. […] To assure this, SH-SY5Y cells were treated with 10 μM SB1617 for directed time, and then the newly synthesized protein was labeled with 10 μg/mL furomycin for 10 minutes and visualized by anti-furomycin antibody staining.

For another assay, the target named is T1, DNAJC3 (Homo sapiens, UniProt Q13217).
T1 sequence (Q13217 32-504): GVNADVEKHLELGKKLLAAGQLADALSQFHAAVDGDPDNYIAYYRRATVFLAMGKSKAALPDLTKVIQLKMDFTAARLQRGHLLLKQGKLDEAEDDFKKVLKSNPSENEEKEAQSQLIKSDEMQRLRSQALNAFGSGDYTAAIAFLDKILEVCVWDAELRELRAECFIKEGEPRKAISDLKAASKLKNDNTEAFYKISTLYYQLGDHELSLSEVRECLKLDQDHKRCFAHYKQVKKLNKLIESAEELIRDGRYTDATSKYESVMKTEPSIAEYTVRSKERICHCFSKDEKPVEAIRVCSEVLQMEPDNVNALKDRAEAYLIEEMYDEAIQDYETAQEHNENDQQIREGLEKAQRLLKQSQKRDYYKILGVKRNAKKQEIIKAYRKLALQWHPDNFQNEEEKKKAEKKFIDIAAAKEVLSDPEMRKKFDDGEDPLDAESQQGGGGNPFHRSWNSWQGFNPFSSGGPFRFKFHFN
Kind of assay: Surface plasmon resonance assay. It counts as binding. Particulars: various concentrations, PBS pH 7.3, 25° C. The method, then: Surface plasmon resonance (SPR) assays were performed using a Biacore T100 instrument (GE Healthcare). The recombinant PDIA3 or DNAJC3 protein was immobilized on the CM5 sensor chip (GE Healthcare) through an amide bond by activating the carboxy group on the CM5 sensor chip with a 1:1 mixture of N-ethyl-N′-(3-dimethylaminopropyl)-carbodiimide and N-hydroxysuccinimide. Protein immobilization reactions were performed in PBS containing 0.005% Tween 20 at pH 4.7 and pH 5.0 for PDIA3 and DNAJC3, respectively. Binding between compounds and proteins was monitored by injecting compounds at various concentrations into PBS (pH 7.3) containing 3% DMSO and 0.005% Tween 20 at 25° C. Data were analyzed to calculate kinetic parameters by fitting sensor grams with a 1:1 binding model using Biacore T100 evaluation software (GE Healthcare).
Additionally, it was confirmed whether SB1617 directly binds to PDIA3 and DNAJC3 through surface plasmon resonance (SPR) of Examples 1-11.
In general terms: SPR reads the build-up and loss of mass on a sensor chip optically.

Assay [2] deals with tau (Tau5, phospho S199, T231) in BiFC-tau Venus HEK293 cells. Kind of assay: Immunoblot of total tau and phospho-tau in HEK293 BiFC-tau cells. Format: cell-based, human. The protocol:
Cells were collected and lysed in modified radioimmunoprecipitation assay(RIPA) buffer 50 mM Tris-HCl, pH 7.8, […], 1% NP-40, 0.5% deoxycholate, 5 mM NaF, 2 mM Na3VO4, and 1× Protease Inhibitor Cocktail(Roche). The concentration of total protein in each lysate was then determined using a whole cell assay and Pierce BCA Protein Assay Kit (ThermoFisher Scientific). Centrifugation was performed at 200 g for 10 minutes at 4° C. for measurement. Equal amounts of each lysate were fractionated by PAGE, transferred to a PVDF membrane (Bio-Rad), and blocked with 2% bovine serum albumin (BSA, MP Biomedicals) in Tris Buffered Saline supplemented with Tween20 (TBST, Sigma) for 1 hour at room temperature.
Membranes were probed with protein-specific antibodies overnight at 4° C. The following day, membranes were washed three times in TBST and incubated with 2% BSA in TBST for 1 hour at room temperature with anti-rabbit or anti-mouse horseradish peroxidase secondary antibodies (Cell Signaling Technology). After washing, membranes were exposed to detection reagents (GE Healthcare) and quantified via chemiluminescence (Bio-Rad). […]

For assay [3], the system named is PERK signaling (p-PERK, p-elF2a, ATF4). Description: Time course of PERK activation in SH-SY5Y cells (immunoblot). It counts as cell-based, human. The protocol:
4-2. PDIA3 and DNAJC3 play a role in regulating tau aggregation by inhibiting the PERK signaling pathway. Accordingly, human neuroblastoma SH-SY5Y cells were treated with 10 μM SB1617, treated with or without thapsigargin, and PERK activation was confirmed over time.
The stress-response potency of SB1617 may be due to upregulation of PDIA3 and DNAJC3 levels or changes in the redox state of partner proteins under ER stress conditions.
On the technique in general: A western blot detects proteins with antibodies after separation by electrophoresis.

With `CN(Cc1ccc(Cl)cc1)c1ncnc2c1[C@@H]1OC[C@H](CN2)N1S(=O)(=O)c1ccc([N+](=O)[O-])cc1` [Compound 117], in assay [1], the “inhibition of protein synthesis” value is “enhanced and extended”. Further, on DNAJC3, the “direct binding (SPR)” value is “binds directly”. For the same compound, the total tau level result in assay [2] (10 μM SB1617, 200 nM TG, pre-treated with 20 μg/mL cycloheximide, 8 hours) is recorded as “did not cause a significant change in tau level”. Besides, the “effect on reduction of total tau level” value in assay [2] (SB1617 and TG with autophagy inhibitors 3-methyladenine and bafilomycin A1) is given as “is reduced, but does not completely diminish”. In addition, in assay [2] (with 80 nM thapsigargin for 20 hours), the “total tau (Tau5) and phospho-tau (S199, T231) levels” value is given as “decreased all tau levels”. Further, the “PERK activation over time” value in assay [3] (10 μM SB1617, with thapsigargin) is given as “prolonged PERK activation”. In addition, the “activation of downstream PERK signaling” value in assay [3] (10 μM SB1617, without thapsigargin (absence of cell stress)) is “not significant”.
